Assay results published in patent publication US11899014B2, “Detection of analytes using live cells” (THE TRUSTEES OF COLUMBIA UNIVERSITY IN THE CITY OF NEW YORK, priority 2014, dated 2024).
pEC50: −log10 of the molar value.

Tests used:
M. oryzea mating GPCR = format: cell-based, Magnaporthe oryzea
[1] = tested on: L. elongisporous mating GPCR; format: cell-based; conditions: cognate synthetic peptide pheromone, fluorescent readout
[2] = tested on: C. albicans mating GPCR (Ca.Ste2); format: cell-based, Candida albicans; conditions: non-cognate peptide
[3] = target: S. cerevisiae native Ste2 receptor (Saccharomyces cerevisiae, UniProt D6VTK4); test: Fungal GPCR activation in S. cerevisiae sensor strain, fluorescent reporter; format: cell-based; conditions: non-cognate peptide
[4] = tested on: P. brasiliensis mating receptor (Pb.Ste2) biosensor; format: cell-based, Paracoccidioides brasiliensis
endogenous GPCR Ste2 = endogenous GPCR Ste2 (Saccharomyces cerevisiae, UniProt D6VTK4); format: cell-based, S. cerevisiae; conditions: v1.0 lycopene reporter strain
[5] = tested on: F. graminearum mating GPCR; format: cell-based, Fusarium graminearum
B. cinerea mating GPCR = format: cell-based, Botrytis cinerea; conditions: cognate synthetic peptide pheromone, fluorescent readout
[6] = tested on: C. albicans mating receptor (Ca.Ste2) biosensor; test: Paper-based dipstick assay, lycopene readout, C. albicans biosensor; format: cell-based, Candida albicans; conditions: 1 μM peptide

S. cerevisiae native Ste2 receptor, sequence (D6VTK4 whole entry): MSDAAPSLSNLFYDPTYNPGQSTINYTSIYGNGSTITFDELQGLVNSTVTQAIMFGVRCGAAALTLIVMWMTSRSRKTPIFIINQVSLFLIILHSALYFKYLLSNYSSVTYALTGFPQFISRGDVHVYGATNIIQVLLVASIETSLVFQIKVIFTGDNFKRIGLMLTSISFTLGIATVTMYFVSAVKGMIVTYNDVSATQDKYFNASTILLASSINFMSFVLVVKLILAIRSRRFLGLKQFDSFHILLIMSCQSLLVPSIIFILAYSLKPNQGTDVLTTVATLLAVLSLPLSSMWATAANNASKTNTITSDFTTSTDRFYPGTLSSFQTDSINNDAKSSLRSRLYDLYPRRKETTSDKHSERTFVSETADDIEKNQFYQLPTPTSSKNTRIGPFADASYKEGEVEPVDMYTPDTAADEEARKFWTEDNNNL
endogenous GPCR Ste2, sequence (D6VTK4 whole entry): as above

Sequence: QWCPRRGQPCW [QWCPRRGQPCW (SEQ ID NO: 17)]
- pEC50 (M. oryzea mating GPCR): 5.30

Sequence: WMWTRYGRFSPV [WMWTRYGRFSPV (SEQ ID NO: 34)]
- pEC50 [1]: 7.29

Sequence: WHWVRLRKGQGLF [WHWVRLRKGQGLF (SEQ ID NO: 8)]
- pEC50 (C. glabrata mating GPCR; cognate synthetic peptide pheromone, biosensor settings): 5.44
- response of C. albicans receptor to the other species pheromone [2]: did not respond
- response of S. cerevisiae native Ste2 receptor to non-cognate pheromone [3]: responded

Sequence: WCTRPGQGC [WCTRPGQGC (SEQ ID NO: 11)]
- time to maximal response in dipstick assay [4]: ≤ 12 h

Sequence: WHWLQLKPGQPMY [WHWLQLKPGQPMY (SEQ ID NO: 24)]
- time until reporter strain became visibly orange after exposure (endogenous GPCR Ste2): 36 h

Sequence: WCWWKGQPCW [WCWWKGQPCW (SEQ ID NO: 14)]
- pEC50 [5]: 6.64

Sequence: WCGRPGQPC [WCGRPGQPC (SEQ ID NO: 20)]
- pEC50 (B. cinerea mating GPCR): > 9.00

Sequence: GFRLTNFGYFEPG [GFRLTNFGYFEPG (SEQ ID NO: 5)]
- response of C. glabrata receptor to the other species pheromone (C. glabrata mating GPCR; non-cognate peptide): did not respond
- time to maximal response in dipstick assay [6]: ≤ 12 h
- response of S. cerevisiae native Ste2 receptor to non-cognate pheromone [3]: not
